Results on 3 compounds are retold here after patent EP2303842B1, “A process for producing lercanidipine.HCl form V” (Recordati Ireland Limited, priority 2008, dated 2010).

Counter-ions that a name gives are not always drawn.

A short description of the data set: Solubility determination in water, HCl 0.1 M and organic solvents (shaken suspensions, HPLC assay of the supernatant). The data set is classed as physicochemical. The note with it: 25°C, shaken 24h, 1440 min. How it is done:
For this purpose, solubility determination at RT of FI, FII and FV in water, HCl 0.1 M and some organic solvents has been carried out as described in the experimental section.
Suspensions in different solvents, ranging in concentration from 20 mg/mL to 400 mg/mL, depending on the solubility, were shaken with thermomixer at 25°C, […] for 24h. An aliquot was taken, centrifuged for 5 minutes at 13000 rpm, the supernatant was transferred in HPLC vials, opportunely diluted and assayed. For aqueous solvent the supernatant was further filtered with a 0.2 µm PVDF filter and centrifuged for 5 minutes at 8000 rpm.
Solubility data (mg/mL) obtained are gathered in Table 2. Table 2: solubility
HPLC-DAD: HP 1050 separation module controlled by HP Chem-station. Method:
Standard and calibration: automatic three point calibration (0.5 mg/mL, 1.0 mg/mL, 1.5 mg/mL), including the zero, using HP Chem-station program.

Where [1] appears, read: solvent H2O, supernatant filtered 0.2 µm PVDF.
[2] abbreviates: solvent HCl 0.1M, supernatant filtered 0.2 µm PVDF.

As usually defined, the Solubility is the dissolved amount per volume that the medium holds. Read a high Solubility as much dissolved substance. As to `COC(=O)C1=C(C)NC(C)=C(C(=O)OC(C)(C)CN(C)CCC(c2ccccc2)c2ccccc2)C1c1cccc([N+](=O)[O-])c1` (single isomer, unassigned) [FV, Lercanidipine.HCl Form V], the Solubility by setting is: (solvent ACN) 26100 µg/mL; (solvent EtOH) 46720 µg/mL; under setting [1], 960 µg/mL; under setting [2], 70 µg/mL; (solvent MeOH) 221900 µg/mL; (solvent acetone) 18500 µg/mL.
For the compound `COC(=O)C1=C(C)NC(C)=C(C(=O)OC(C)(C)CN(C)CCC(c2ccccc2)c2ccccc2)C1c1cccc([N+](=O)[O-])c1` (single isomer, unassigned) [FI, Lercanidipine.HCl Form I], the Solubility runs as follows: (solvent ACN) 13800 µg/mL; (solvent EtOH) 28200 µg/mL; under setting [1], 1600 µg/mL; under setting [2], 200 µg/mL; (solvent MeOH) 263900 µg/mL; (solvent acetone) 9400 µg/mL.
`COC(=O)C1=C(C)NC(C)=C(C(=O)OC(C)(C)CN(C)CCC(c2ccccc2)c2ccccc2)C1c1cccc([N+](=O)[O-])c1` (single isomer, unassigned) [FII, Lercanidipine.HCl Form II]: the Solubility (solvent ACN) is 4800 µg/mL; the Solubility (solvent EtOH) was determined as 10500 µg/mL; the Solubility under setting [1] stood at 300 µg/mL; the Solubility under setting [2] amounted to 9 µg/mL; the Solubility (solvent MeOH) was 83900 µg/mL; the Solubility (solvent acetone) worked out at 2700 µg/mL.
